Measurements taken from ChEMBL document CHEMBL1649439, “Prevalence of aac(6')-Ib-cr encoding a ciprofloxacin-modifying enzyme among Enterobacteriaceae blood isolates in Korea” (2009).
≈ marks a conversion by molar mass, not a printed value.

Tests used:
Assay type in all cases: functional
Klebsiella pneumoniae [1] = assay: Antimicrobial activity against Klebsiella pneumoniae isolate 202 transconjugant expressing aac(6')-Ib-cr gene
Enterobacter cloacae [2] = assay: Antimicrobial activity against Enterobacter cloacae isolate 101 transconjugant expressing aac(6')-Ib-cr gene
Escherichia coli [3] = assay: Antimicrobial activity against Escherichia coli isolate 48 expressing aac(6')-Ib-cr gene
Klebsiella pneumoniae [4] = assay: Antimicrobial activity against Klebsiella pneumoniae isolate 135 transconjugant expressing aac(6')-Ib-cr gene
Escherichia coli [5] = assay: Antimicrobial activity against Escherichia coli isolate 48 transconjugant expressing aac(6')-Ib-cr gene
Enterobacter cloacae [6] = assay: Antimicrobial activity against Enterobacter cloacae isolate 153 expressing aac(6')-Ib-cr gene
Enterobacter cloacae [7] = assay: Antimicrobial activity against Enterobacter cloacae isolate 37 expressing aac(6')-Ib-cr gene
Klebsiella pneumoniae [8] = assay: Antimicrobial activity against Klebsiella pneumoniae isolate 202 expressing aac(6')-Ib-cr gene
Klebsiella pneumoniae [9] = assay: Antimicrobial activity against Klebsiella pneumoniae isolate 132 expressing aac(6')-Ib-cr gene
Escherichia coli [10] = assay: Antimicrobial activity against azide-resistant Escherichia coli J53
Klebsiella pneumoniae [11] = assay: Antimicrobial activity against Klebsiella pneumoniae isolate 135 expressing aac(6')-Ib-cr gene
Enterobacter cloacae [12] = assay: Antimicrobial activity against Enterobacter cloacae isolate 153 transconjugant expressing aac(6')-Ib-cr gene
Escherichia coli [13] = assay: Ratio of MIC for Escherichia coli isolate 48 transconjugant to MIC for azide-resistant Escherichia coli […]
Escherichia coli [14] = assay: Ratio of MIC for Escherichia coli isolate 17 transconjugant to MIC for azide-resistant Escherichia coli […]
Escherichia coli [15] = assay: Antimicrobial activity against Escherichia coli isolate 17 transconjugant expressing aac(6')-Ib-cr gene
Escherichia coli [16] = assay: Antimicrobial activity against Escherichia coli isolate 17 expressing aac(6')-Ib-cr gene
Klebsiella pneumoniae [17] = assay: Antimicrobial activity against Klebsiella pneumoniae isolate 132 transconjugant expressing aac(6')-Ib-cr gene
Enterobacter cloacae [18] = assay: Antimicrobial activity against Enterobacter cloacae isolate 37 transconjugant expressing aac(6')-Ib-cr gene
Enterobacter cloacae [19] = assay: Antimicrobial activity against Enterobacter cloacae isolate 101 expressing aac(6')-Ib-cr gene

`CCn1cc(C(=O)O)c(=O)c2cc(F)c(N3CCNCC3)cc21` [NORFLOXACIN] gave an MIC (Klebsiella pneumoniae [1]) of 0.125 µg/mL (≈ 0.391 µM), an MIC (Enterobacter cloacae [2]) of 0.25 µg/mL (≈ 0.783 µM) and an MIC (Escherichia coli [3]) of over 16 µg/mL. The MIC (Klebsiella pneumoniae [4]) was 8 µg/mL (≈ 25.1 µM), the MIC (Escherichia coli [5]) was 0.25 µg/mL (≈ 0.783 µM) and the MIC (Enterobacter cloacae [6]) was over 16 µg/mL. The MIC (Enterobacter cloacae [7]) was over 16 µg/mL, the MIC (Klebsiella pneumoniae [8]) was over 16 µg/mL and the MIC (Klebsiella pneumoniae [9]) was 0.5 µg/mL (≈ 1.57 µM). The MIC (Escherichia coli [10]) was 0.06 µg/mL (≈ 0.188 µM), the MIC (Klebsiella pneumoniae [11]) was over 16 µg/mL and the MIC (Enterobacter cloacae [12]) was 0.25 µg/mL (≈ 0.783 µM). For the same molecule, the “fold change (FC)” value (Escherichia coli [13]) was 2, the “fold change (FC)” value (Escherichia coli [14]) was 2 and the MIC (Escherichia coli [15]) was 0.25 µg/mL (≈ 0.783 µM). It also gave an MIC (Escherichia coli [16]) of over 16 µg/mL, an MIC (Klebsiella pneumoniae [17]) of 0.125 µg/mL (≈ 0.391 µM) and an MIC (Enterobacter cloacae [18]) of 0.25 µg/mL (≈ 0.783 µM). It also gave an MIC (Enterobacter cloacae [19]) of over 16 µg/mL.

With `CC(C)(O/N=C(\C(=O)N[C@@H]1C(=O)N2C(C(=O)[O-])=C(C[n+]3ccccc3)CS[C@H]12)c1csc(N)n1)C(=O)O` [CEFTAZIDIME] the MIC (Klebsiella pneumoniae [1]) was 1 µg/mL (≈ 1.83 µM), the MIC (Enterobacter cloacae [2]) was 2 µg/mL (≈ 3.66 µM) and the MIC (Escherichia coli [3]) was over 32 µg/mL. The MIC (Klebsiella pneumoniae [4]) was over 32 µg/mL, the MIC (Escherichia coli [5]) was over 32 µg/mL and the MIC (Enterobacter cloacae [6]) was over 32 µg/mL. It also gave an MIC (Enterobacter cloacae [7]) of 8 µg/mL (≈ 14.6 µM), an MIC (Klebsiella pneumoniae [8]) of over 32 µg/mL and an MIC (Klebsiella pneumoniae [9]) of 32 µg/mL (≈ 58.5 µM). For the same molecule, the MIC (Escherichia coli [10]) was 0.25 µg/mL (≈ 0.457 µM), the MIC (Klebsiella pneumoniae [11]) was over 32 µg/mL and the MIC (Enterobacter cloacae [12]) was 1 µg/mL (≈ 1.83 µM). It also gave an MIC (Escherichia coli [15]) of 16 µg/mL (≈ 29.3 µM), an MIC (Escherichia coli [16]) of 32 µg/mL (≈ 58.5 µM) and an MIC (Klebsiella pneumoniae [17]) of 16 µg/mL (≈ 29.3 µM). It also gave an MIC (Enterobacter cloacae [18]) of 2 µg/mL (≈ 3.66 µM) and an MIC (Enterobacter cloacae [19]) of over 32 µg/mL.

Molecule `NC[C@H]1O[C@H](O[C@H]2[C@H](O)[C@@H](O[C@H]3O[C@H](CO)[C@@H](O)[C@H](N)[C@H]3O)[C@H](N)C[C@@H]2N)[C@H](N)C[C@@H]1O` [TOBRAMYCIN] has an MIC (Klebsiella pneumoniae [1]) of over 16 µg/mL, an MIC (Enterobacter cloacae [2]) of 2 µg/mL (≈ 4.28 µM) and an MIC (Escherichia coli [3]) of 16 µg/mL (≈ 34.2 µM). For the same molecule, the MIC (Klebsiella pneumoniae [4]) was over 16 µg/mL, the MIC (Escherichia coli [5]) was 8 µg/mL (≈ 17.1 µM) and the MIC (Enterobacter cloacae [6]) was over 16 µg/mL. It also gave an MIC (Enterobacter cloacae [7]) of over 16 µg/mL, an MIC (Klebsiella pneumoniae [8]) of over 16 µg/mL and an MIC (Klebsiella pneumoniae [9]) of over 16 µg/mL. The MIC (Escherichia coli [10]) was 0.25 µg/mL (≈ 0.535 µM), the MIC (Klebsiella pneumoniae [11]) was over 16 µg/mL and the MIC (Enterobacter cloacae [12]) was over 16 µg/mL. It also gave an MIC (Escherichia coli [15]) of 16 µg/mL (≈ 34.2 µM), an MIC (Escherichia coli [16]) of over 16 µg/mL and an MIC (Klebsiella pneumoniae [17]) of 16 µg/mL (≈ 34.2 µM). For the same molecule, the MIC (Enterobacter cloacae [18]) was over 16 µg/mL and the MIC (Enterobacter cloacae [19]) was over 16 µg/mL.

In the case of `O=C(O)c1cn(C2CC2)c2cc(N3CCNCC3)c(F)cc2c1=O` [CIPROFLOXACIN], the MIC (Klebsiella pneumoniae [1]) is reported as 0.03 µg/mL (≈ 0.0905 µM), the MIC (Escherichia coli [3]) is reported as over 16 µg/mL and the MIC (Klebsiella pneumoniae [4]) is reported as 1 µg/mL (≈ 3.02 µM). For the same molecule, the MIC (Klebsiella pneumoniae [8]) was over 16 µg/mL, the MIC (Klebsiella pneumoniae [9]) was 0.125 µg/mL (≈ 0.377 µM) and the MIC (Klebsiella pneumoniae [11]) was over 16 µg/mL. The MIC (Escherichia coli [16]) was over 16 µg/mL and the MIC (Klebsiella pneumoniae [17]) was 0.03 µg/mL (≈ 0.0905 µM).

With `CCn1cc(C(=O)O)c(=O)c2ccc(C)nc21` [NALIDIXIC ACID] the MIC (Klebsiella pneumoniae [1]) was 8 µg/mL (≈ 34.4 µM), the MIC (Enterobacter cloacae [2]) was 8 µg/mL (≈ 34.4 µM) and the MIC (Escherichia coli [3]) was over 256 µg/mL. The MIC (Klebsiella pneumoniae [4]) was 32 µg/mL (≈ 138 µM), the MIC (Escherichia coli [5]) was 8 µg/mL (≈ 34.4 µM) and the MIC (Enterobacter cloacae [6]) was over 256 µg/mL. The MIC (Enterobacter cloacae [7]) was over 256 µg/mL, the MIC (Klebsiella pneumoniae [8]) was over 256 µg/mL and the MIC (Klebsiella pneumoniae [9]) was 8 µg/mL (≈ 34.4 µM). For the same molecule, the MIC (Escherichia coli [10]) was 8 µg/mL (≈ 34.4 µM), the MIC (Klebsiella pneumoniae [11]) was over 256 µg/mL and the MIC (Enterobacter cloacae [12]) was 8 µg/mL (≈ 34.4 µM). The MIC (Escherichia coli [15]) was 8 µg/mL (≈ 34.4 µM), the MIC (Escherichia coli [16]) was over 256 µg/mL and the MIC (Klebsiella pneumoniae [17]) was 8 µg/mL (≈ 34.4 µM). For the same molecule, the MIC (Enterobacter cloacae [18]) was 8 µg/mL (≈ 34.4 µM) and the MIC (Enterobacter cloacae [19]) was over 256 µg/mL.

GENTAMICIN was tested, and the MIC (Klebsiella pneumoniae [1]) was over 32 µg/mL, the MIC (Enterobacter cloacae [2]) was 0.25 µg/mL and the MIC (Escherichia coli [3]) was 0.25 µg/mL. It also gave an MIC (Klebsiella pneumoniae [4]) of over 32 µg/mL, an MIC (Escherichia coli [5]) of 0.25 µg/mL and an MIC (Enterobacter cloacae [6]) of over 32 µg/mL. The MIC (Enterobacter cloacae [7]) was over 32 µg/mL, the MIC (Klebsiella pneumoniae [8]) was over 32 µg/mL and the MIC (Klebsiella pneumoniae [9]) was over 32 µg/mL. For the same molecule, the MIC (Escherichia coli [10]) was 0.25 µg/mL, the MIC (Klebsiella pneumoniae [11]) was over 32 µg/mL and the MIC (Enterobacter cloacae [12]) was over 32 µg/mL. The MIC (Escherichia coli [15]) was 32 µg/mL, the MIC (Escherichia coli [16]) was over 32 µg/mL and the MIC (Klebsiella pneumoniae [17]) was 32 µg/mL. It also gave an MIC (Enterobacter cloacae [18]) of over 32 µg/mL and an MIC (Enterobacter cloacae [19]) of over 32 µg/mL.

`CO/N=C(\C(=O)N[C@@H]1C(=O)N2C(C(=O)O)=C(COC(C)=O)CS[C@H]12)c1csc(N)n1` [CEFOTAXIME] gave an MIC (Klebsiella pneumoniae [1]) of 16 µg/mL (≈ 35.1 µM), an MIC (Enterobacter cloacae [2]) of 32 µg/mL (≈ 70.3 µM) and an MIC (Escherichia coli [3]) of over 256 µg/mL. It also gave an MIC (Klebsiella pneumoniae [4]) of 256 µg/mL (≈ 562 µM), an MIC (Escherichia coli [5]) of over 256 µg/mL and an MIC (Enterobacter cloacae [6]) of 256 µg/mL (≈ 562 µM). For the same molecule, the MIC (Enterobacter cloacae [7]) was 128 µg/mL (≈ 281 µM), the MIC (Klebsiella pneumoniae [8]) was over 256 µg/mL and the MIC (Klebsiella pneumoniae [9]) was over 256 µg/mL. It also gave an MIC (Escherichia coli [10]) of 0.06 µg/mL (≈ 0.132 µM), an MIC (Klebsiella pneumoniae [11]) of 256 µg/mL (≈ 562 µM) and an MIC (Enterobacter cloacae [12]) of 32 µg/mL (≈ 70.3 µM). The MIC (Escherichia coli [15]) was 256 µg/mL (≈ 562 µM), the MIC (Escherichia coli [16]) was 256 µg/mL (≈ 562 µM) and the MIC (Klebsiella pneumoniae [17]) was over 256 µg/mL. The MIC (Enterobacter cloacae [18]) was 64 µg/mL (≈ 141 µM) and the MIC (Enterobacter cloacae [19]) was 256 µg/mL (≈ 562 µM).

For `COc1c(N2C[C@@H]3CCCN[C@@H]3C2)c(F)cc2c(=O)c(C(=O)O)cn(C3CC3)c12` [MOXIFLOXACIN], the MIC (Klebsiella pneumoniae [1]) was 0.06 µg/mL (≈ 0.149 µM), the MIC (Klebsiella pneumoniae [4]) was 1 µg/mL (≈ 2.49 µM) and the MIC (Klebsiella pneumoniae [8]) was 16 µg/mL (≈ 39.9 µM). For the same molecule, the MIC (Klebsiella pneumoniae [9]) was 0.125 µg/mL (≈ 0.311 µM), the MIC (Klebsiella pneumoniae [11]) was over 16 µg/mL and the MIC (Escherichia coli [16]) was over 16 µg/mL. For the same molecule, the MIC (Klebsiella pneumoniae [17]) was 0.06 µg/mL (≈ 0.149 µM).
